For one data set, the target named is hURAT1 (Homo sapiens (Human), UniProt Q96S37). The data set can be described thus: In vitro inhibition of 14C-uric acid absorption in HEK-293T cells stably expressing hURAT1. Type of data set: cell-based. Here is the method: It was to test the in vitro inhibitory activity (IC50) of the compound on hURAT1.
The culture medium included: a DMEM culture medium+10% of fetal calf serum+500 μg/ml G418+1% of P/S. • (2) When the cells grew to 80% full, the culture medium was removed, PBS was added to clean the cells once, and then pancreatin-EDTA was added for digestion. The culture medium was added when the cells were subjected to wall removal, and subjected to blowing and beating to make the cells fall off. The cells were centrifuged and collected. The culture medium was added, and subjected to blowing and beating to form cell suspension. • (3) The cell density was adjusted to be 7×10^5/ml, then the cells were inoculated into a 96-well cell culture plate with white wall and transparent bottom according to the amount of 100 μL/well, and cultured for 12-24 h.
3.3 Preparation of compounds • (1) The compound was prepared into a mother solution with a concentration of 20 mM by DMSO, the mother solution was diluted to reach a concentration of 1 mM by DMSO, and then the solution was added into 96 wells. • (2) Quality control compounds were additionally arranged on the 96-well plate, so as to obtain a 100 x compound plate. • (3) The solutions in corresponding wells of another 96-well plate were diluted 50 times by the Cl-free HBSS buffer solution, so as to obtain a 2 x compound plate (plate 2). • (4) A buffer solution containing 0.1 μCi/ml 14C-uric acid at a density of 30 μL/well and a 2 x diluted compound at a density of 30 μL/well into a new 96-well plate, so as to obtain a 1 x compound plate (plate 1) for later use.
3.4 Absorption of ^14C-uric acid in cells stably expressing hURAT1 • (1) An absorption test may be performed after cells in the 96-well plate were cultured and adhered to the wall. • (2) The cells were washed once by the preheated buffer solution at a density of 200 μL/well. • (3) The cells in each well were completely absorbed, and then the corresponding compounds and 0.1 μCi/ml 14C-uric acid solution were immediately added at a density of 50 μL/well. • (4) The plate added with the compounds was incubated in an incubator at 37° C. for 5 min. • (5) 150 μL of ice-cold buffer solution was immediately added into each well to stop absorption. Each well was washed for three times with the buffer solution.

The target in another data set is OAT1 (Homo sapiens (Human), UniProt Q4U2R8). As to the kind of experiment: Inhibitory effect on transporter OAT1.
Another data set concerns the target OAT3 (Homo sapiens (Human), UniProt Q8TCC7). The data set can be described thus: Inhibitory effect on transporter OAT3.
In data set [1] the test system is rat model of hyperuricemia. The data set can be described thus: Rat model of hyperuricemia induced by oteracil potassium and hypoxanthine. Type of data set: in vivo. As to conditions: P<0.05. As to the method: Oteracil potassium was combined with hypoxanthine to induce a rat model of hyperuricemia for effective dose exploration and dose-effect relationship research. Oteracil potassium feed was adopted for feeding to induce the rat model of hyperuricemia for time-effect relationship, pathological state-based functional mechanism confirmation, and PK-PD researches.
In the experiment, the rat model of hyperuricemia was prepared by intragastric administration of hypoxanthine and intraperitoneal injection of oteracil potassium. The single intragastric administration dose of the compound shown in Formula 1 was set to be 5 mg/kg, 10 mg/kg, 20 mg/kg, and 40 mg/kg. The single intragastric administration dose of Lesinurad in the positive control groups was set to be 10 mg/kg, 20 mg/kg, 40 mg/kg, and 80 mg/kg. […] Moreover, the compounds had no significant effect on the renal coefficient, further verifying the good safety of this product at the effective dose.

A further data set concerns the target OAT4 (Homo sapiens (Human), UniProt Q9NSA0). The data set can be described thus: Inhibitory effect on transporter OAT4.
[2] abbreviates: curve-fit parameter, hURAT1 inhibition, superscript 1 = plate1, 2 = plate2.

Structures are written as SMILES. Where two headings read alike, the source gives them in different places. Some results are limits rather than exact numbers.

Chain of hURAT1 (Q96S37 whole entry): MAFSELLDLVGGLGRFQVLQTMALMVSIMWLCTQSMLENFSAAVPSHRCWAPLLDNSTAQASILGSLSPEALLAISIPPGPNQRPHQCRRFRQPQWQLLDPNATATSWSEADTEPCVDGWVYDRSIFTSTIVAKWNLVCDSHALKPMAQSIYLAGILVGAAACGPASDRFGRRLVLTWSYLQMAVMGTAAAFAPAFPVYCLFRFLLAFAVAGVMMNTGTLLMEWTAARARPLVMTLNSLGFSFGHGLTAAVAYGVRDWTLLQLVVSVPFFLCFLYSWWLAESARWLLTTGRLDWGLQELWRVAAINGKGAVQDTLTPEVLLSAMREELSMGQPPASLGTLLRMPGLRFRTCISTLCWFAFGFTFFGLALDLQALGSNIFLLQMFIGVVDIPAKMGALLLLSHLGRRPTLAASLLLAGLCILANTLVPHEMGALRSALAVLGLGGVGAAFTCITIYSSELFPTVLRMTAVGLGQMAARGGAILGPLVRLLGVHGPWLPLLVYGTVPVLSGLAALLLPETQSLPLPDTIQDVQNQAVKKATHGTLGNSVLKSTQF
Chain of OAT3 (Q8TCC7 whole entry): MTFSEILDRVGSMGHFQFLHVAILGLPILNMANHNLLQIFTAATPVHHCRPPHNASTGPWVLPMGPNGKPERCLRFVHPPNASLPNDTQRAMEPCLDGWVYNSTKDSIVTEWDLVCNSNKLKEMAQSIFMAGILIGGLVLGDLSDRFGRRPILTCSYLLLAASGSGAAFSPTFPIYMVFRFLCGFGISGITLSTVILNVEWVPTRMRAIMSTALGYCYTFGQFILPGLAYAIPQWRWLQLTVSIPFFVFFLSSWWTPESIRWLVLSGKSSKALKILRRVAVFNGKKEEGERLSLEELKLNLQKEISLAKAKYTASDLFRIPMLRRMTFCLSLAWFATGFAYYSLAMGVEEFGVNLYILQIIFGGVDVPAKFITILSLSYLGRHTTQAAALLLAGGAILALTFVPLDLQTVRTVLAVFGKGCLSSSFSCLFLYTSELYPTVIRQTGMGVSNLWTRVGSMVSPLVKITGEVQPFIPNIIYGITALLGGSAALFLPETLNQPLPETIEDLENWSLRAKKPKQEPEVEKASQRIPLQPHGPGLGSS
Chain of OAT1 (Q4U2R8 whole entry): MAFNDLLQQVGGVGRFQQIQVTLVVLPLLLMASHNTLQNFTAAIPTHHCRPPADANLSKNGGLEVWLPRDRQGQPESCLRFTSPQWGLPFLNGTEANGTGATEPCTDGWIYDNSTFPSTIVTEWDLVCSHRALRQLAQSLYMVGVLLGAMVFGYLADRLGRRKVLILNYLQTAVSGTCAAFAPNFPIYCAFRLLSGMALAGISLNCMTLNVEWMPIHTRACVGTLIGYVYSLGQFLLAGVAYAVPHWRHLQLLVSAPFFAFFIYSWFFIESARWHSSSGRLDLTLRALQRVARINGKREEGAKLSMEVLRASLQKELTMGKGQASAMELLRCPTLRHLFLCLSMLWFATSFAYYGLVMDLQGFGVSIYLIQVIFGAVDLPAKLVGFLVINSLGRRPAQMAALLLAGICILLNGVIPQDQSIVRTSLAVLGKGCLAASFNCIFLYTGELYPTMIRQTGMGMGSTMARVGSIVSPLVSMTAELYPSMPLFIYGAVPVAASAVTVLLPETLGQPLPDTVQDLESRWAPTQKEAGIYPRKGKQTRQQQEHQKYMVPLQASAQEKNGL
Chain of OAT4 (Q9NSA0 whole entry): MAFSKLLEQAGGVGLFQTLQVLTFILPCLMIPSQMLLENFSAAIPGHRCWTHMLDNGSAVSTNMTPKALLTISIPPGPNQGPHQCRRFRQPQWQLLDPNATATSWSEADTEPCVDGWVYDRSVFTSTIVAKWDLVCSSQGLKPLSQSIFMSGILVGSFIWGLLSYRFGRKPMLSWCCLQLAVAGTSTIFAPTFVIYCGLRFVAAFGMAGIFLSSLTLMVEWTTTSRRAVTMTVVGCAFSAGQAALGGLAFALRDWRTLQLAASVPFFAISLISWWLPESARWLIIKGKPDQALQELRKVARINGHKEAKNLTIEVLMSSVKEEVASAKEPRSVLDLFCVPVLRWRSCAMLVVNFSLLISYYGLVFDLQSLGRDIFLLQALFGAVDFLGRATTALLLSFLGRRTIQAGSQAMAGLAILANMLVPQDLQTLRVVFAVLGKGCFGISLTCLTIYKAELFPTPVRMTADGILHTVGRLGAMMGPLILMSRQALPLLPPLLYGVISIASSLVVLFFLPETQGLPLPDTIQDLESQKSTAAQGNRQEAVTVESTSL
Experimental for OAT1: (§1) The IC50 of compounds on URAT1, OAT1, OAT3, and OAT4 was tested, thereby providing research data for clinical application and further development of drugs.
Experimental for OAT3: as §1
Experimental for OAT4: as §1

`CCc1oc2ccccc2c1C(=O)c1cc(Br)c(O)c(Br)c1` [Benzbromarone]: on hURAT1, the BOTTOM is 6.1, the HILLSLOPE came to 1.20 and the TOP is listed as 99.1.
For the compound `CC(C)(Sc1ccnc2ccc(C(F)(F)F)cc12)C(=O)NS(C)(=O)=O` [D], the values for the IC50 at OAT1 and at OAT3 were 12.7 µM and more than 100 µM, respectively.
As for `O=C(O)CSc1nnc(Br)n1-c1ccc(C2CC2)c2ccccc12` [Lesinurad], the “serum uric acid level” value in data set [1] (model rats, single intragastric dose 40 mg/kg, vs model control group) is given as “significantly reduce”. Further, in data set [1] (rats, single intragastric dose 80 mg/kg), the renal coefficient entry is “increased significantly”.
For the compound `CCCN(CCC)S(=O)(=O)c1ccc(C(=O)O)cc1` [Probenecid], the “inhibitory effect on drug transporter OAT4 (in words)” value against OAT4 was “a certain inhibitory effect”.
On hURAT1 (setting [2]), `CC(C)(Sc1ccncc1-c1ccc(C#N)c2ccccc12)C(=O)O` [Verinuard, Verinurad] displayed a BOTTOM of 0.00, an HILLSLOPE of 0.75 and a TOP of 96.94. On hURAT1 (hURAT1, HEK-293T, 14C-uric acid, 5 min at 37° C., superscript 1 = plate1, 2 = plate2), this compound showed an IC50 of 0.0545 µM.

The values are drawn from US20240116873A1, “QUINOLINE MERCAPTOACETATE SULFONAMIDE DERIVATIVE, INTERMEDIATE, PHARMACEUTICAL DERIVATIVE OR FORMULATION, AND PREPARATION METHOD AND USE THEREFOR” (JIANGSU CHIATAI QINGJIANG PHARMACEUTICAL CO., LTD., priority 2022, published 2024).
